{
  "source": "patent US12492195B2",
  "about": "“Preparation method for and crystal form of 3-aryloxy-3-five-membered heteroaryl-propylamine compound” (Zhangzhou Pien Tze Huang Pharmaceutical Co., Ltd., priority 2020, dated 2025)",
  "key": {"TRPM8": {"molecular_target": "T1, TRPM8 (Homo sapiens, UniProt Q7Z2W7)", "T1 construct": "expressed in transfected cells", "T1 sequence (Q7Z2W7 whole entry, species assumed)": "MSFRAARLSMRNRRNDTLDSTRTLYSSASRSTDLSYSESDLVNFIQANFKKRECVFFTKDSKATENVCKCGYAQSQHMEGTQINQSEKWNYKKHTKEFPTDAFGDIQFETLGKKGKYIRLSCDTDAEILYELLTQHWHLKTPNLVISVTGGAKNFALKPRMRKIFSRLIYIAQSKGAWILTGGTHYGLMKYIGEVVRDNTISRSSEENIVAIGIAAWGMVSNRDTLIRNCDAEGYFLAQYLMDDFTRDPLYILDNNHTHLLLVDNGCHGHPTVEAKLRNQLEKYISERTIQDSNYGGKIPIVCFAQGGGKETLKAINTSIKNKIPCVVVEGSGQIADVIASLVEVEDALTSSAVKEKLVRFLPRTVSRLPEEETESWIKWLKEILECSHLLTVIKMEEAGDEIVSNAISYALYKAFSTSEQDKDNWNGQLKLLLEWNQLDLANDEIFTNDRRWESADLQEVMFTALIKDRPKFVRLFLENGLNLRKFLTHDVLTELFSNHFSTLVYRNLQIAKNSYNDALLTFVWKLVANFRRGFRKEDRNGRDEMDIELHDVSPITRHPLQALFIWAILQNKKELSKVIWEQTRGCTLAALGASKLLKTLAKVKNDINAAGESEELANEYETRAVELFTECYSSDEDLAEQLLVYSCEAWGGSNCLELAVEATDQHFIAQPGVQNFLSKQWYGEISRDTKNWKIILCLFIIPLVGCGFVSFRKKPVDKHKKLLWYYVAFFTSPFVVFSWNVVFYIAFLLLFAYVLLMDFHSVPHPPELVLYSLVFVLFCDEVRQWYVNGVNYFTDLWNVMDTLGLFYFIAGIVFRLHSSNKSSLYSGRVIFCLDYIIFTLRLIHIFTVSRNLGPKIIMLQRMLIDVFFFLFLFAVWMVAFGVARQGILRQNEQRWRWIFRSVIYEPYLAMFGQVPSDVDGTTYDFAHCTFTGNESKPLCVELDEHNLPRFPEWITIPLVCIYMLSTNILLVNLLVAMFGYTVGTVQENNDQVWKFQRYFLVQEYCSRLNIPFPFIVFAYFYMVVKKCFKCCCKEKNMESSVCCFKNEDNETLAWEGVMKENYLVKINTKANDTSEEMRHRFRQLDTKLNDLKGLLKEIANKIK", "experiment": "Manual patch clamp detection on TRPM8 channel", "assay_type": "cell-based", "conditions": "20.00 μM, positive compound", "description": "(§1) TRPM8 cells were cultured in a cell culture dish with a diameter of 35 mm, placed in an incubator in 5% CO2 at 37° C., and passaged at a ratio of 1:5 every 48 hours. The formula of medium was 90% DMEM (Invitrogen), 10% fetal bovine serum (Gibco), 2 mM L-glutamine, 50 μg/mL Hygromycin B (Invitrogen) and 5 μg/mL Blasticidine HCl (Invitrogen). Before electrophysiological patch clamp experiment, the cell culture medium was replaced with medium containing 1 μg/mL doxycycline for at least 16 hours to induce TRPM8 expression.\n(§2) On the day of the experiment, the cell culture medium was aspirated, the cell were rinsed once with extracellular fluid, and then 0.25% Trypsin-EDTA (Invitrogen) solution was added, and digested at room temperature for 1-2 minutes. The digestion solution was aspirated, the cell were resuspended with extracellular fluid, and transferred to the experimental dish for electrophysiological recording for further experiment.\nPreparation of menthol: 100.00 mM of DMSO stock solution of menthol was added to the extracellular solution, diluting 1000-fold to 100.00 μM of menthol solution.\nPreparation of AMTB: 5 μL of DMSO stock solution (20.00 mM) of AMTB was added to 4995 μL of menthol solution (100.00 uM), diluting 1000-fold to obtain the final concentration of 20.00 μM AMTB to be tested.\nPreparation of IC-1: 20.00 mM or 10.00 mM of stock solution of IC-1 was taken and added to the agonist solution of the corresponding channel, diluting 1000 or 2000-fold to the final concentration of 10.00 μM of […] solution to be tested.\n(§3) HEK293 cells stably expressing TRP channels, the corresponding agonist-induced channel current was recorded by whole-cell patch clamp technique at room temperature. […] Clamp voltages and data recording were controlled and recorded by a computer using pClamp 11 software with the sampling frequency of 10 kHz and the filtering frequency of 2 kHz. […] After the current was evoked for more than 40 s and no attenuation was determined, the dosing process started. […]"}, "TRPV1": {"molecular_target": "T2, TRPV1 (Homo sapiens, UniProt Q8NER1)", "T2 construct": "expressed in transfected cells", "T2 sequence (Q8NER1 whole entry, species assumed)": "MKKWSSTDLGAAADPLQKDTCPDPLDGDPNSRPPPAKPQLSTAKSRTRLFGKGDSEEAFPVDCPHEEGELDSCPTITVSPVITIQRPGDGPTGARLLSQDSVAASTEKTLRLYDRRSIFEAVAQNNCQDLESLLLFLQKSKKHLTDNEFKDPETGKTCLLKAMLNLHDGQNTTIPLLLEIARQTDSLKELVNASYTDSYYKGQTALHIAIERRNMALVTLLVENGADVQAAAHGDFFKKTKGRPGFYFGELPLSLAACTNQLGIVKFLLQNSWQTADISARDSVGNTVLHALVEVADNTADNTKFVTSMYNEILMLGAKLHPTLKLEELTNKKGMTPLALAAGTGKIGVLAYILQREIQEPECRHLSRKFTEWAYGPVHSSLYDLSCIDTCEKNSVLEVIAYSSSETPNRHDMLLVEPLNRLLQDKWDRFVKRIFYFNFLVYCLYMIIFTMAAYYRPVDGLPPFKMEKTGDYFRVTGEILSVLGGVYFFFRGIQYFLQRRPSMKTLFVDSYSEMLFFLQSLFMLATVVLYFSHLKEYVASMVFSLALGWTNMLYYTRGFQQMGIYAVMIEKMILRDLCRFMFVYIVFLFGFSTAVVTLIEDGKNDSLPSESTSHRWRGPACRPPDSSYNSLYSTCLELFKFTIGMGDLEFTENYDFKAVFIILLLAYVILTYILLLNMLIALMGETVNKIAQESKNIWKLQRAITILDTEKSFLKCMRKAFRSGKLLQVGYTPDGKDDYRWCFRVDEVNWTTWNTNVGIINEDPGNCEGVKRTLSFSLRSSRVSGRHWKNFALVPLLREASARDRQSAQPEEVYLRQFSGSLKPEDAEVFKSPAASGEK", "experiment": "Manual patch clamp detection on TRPV1 channel", "assay_type": "cell-based", "conditions": "HEK293, Capsaicin-induced current", "description": "TRPV1 cells were cultured in a cell culture dish with a diameter of 35 mm, placed in a 37° C., 5% CO2 incubator, and passaged at a ratio of 1:5 every 48 hours. Medium formula: 90% DMEM (Invitrogen), 10% Fetal bovine serum (Gibco). 2 mM L-glutamine, 50 μg/mL Hygromycin B (Invitrogen) and 5 μg/mL Blasticidine HCl (Invitrogen). Before electrophysiological patch clamp experiments, the cell culture medium was replaced with medium containing 1 μg/mL Doxycycline for at least 16 hours to induce the expression of TRPV1.\nas §2, with “experiment. […]” for “experiment.”\nas §3"}, "TRPA1": {"molecular_target": "T3, TRPA1 (Mus musculus, UniProt Q8BLA8)", "T3 construct": "expressed in transfected cells", "T3 sequence (Q8BLA8 whole entry)": "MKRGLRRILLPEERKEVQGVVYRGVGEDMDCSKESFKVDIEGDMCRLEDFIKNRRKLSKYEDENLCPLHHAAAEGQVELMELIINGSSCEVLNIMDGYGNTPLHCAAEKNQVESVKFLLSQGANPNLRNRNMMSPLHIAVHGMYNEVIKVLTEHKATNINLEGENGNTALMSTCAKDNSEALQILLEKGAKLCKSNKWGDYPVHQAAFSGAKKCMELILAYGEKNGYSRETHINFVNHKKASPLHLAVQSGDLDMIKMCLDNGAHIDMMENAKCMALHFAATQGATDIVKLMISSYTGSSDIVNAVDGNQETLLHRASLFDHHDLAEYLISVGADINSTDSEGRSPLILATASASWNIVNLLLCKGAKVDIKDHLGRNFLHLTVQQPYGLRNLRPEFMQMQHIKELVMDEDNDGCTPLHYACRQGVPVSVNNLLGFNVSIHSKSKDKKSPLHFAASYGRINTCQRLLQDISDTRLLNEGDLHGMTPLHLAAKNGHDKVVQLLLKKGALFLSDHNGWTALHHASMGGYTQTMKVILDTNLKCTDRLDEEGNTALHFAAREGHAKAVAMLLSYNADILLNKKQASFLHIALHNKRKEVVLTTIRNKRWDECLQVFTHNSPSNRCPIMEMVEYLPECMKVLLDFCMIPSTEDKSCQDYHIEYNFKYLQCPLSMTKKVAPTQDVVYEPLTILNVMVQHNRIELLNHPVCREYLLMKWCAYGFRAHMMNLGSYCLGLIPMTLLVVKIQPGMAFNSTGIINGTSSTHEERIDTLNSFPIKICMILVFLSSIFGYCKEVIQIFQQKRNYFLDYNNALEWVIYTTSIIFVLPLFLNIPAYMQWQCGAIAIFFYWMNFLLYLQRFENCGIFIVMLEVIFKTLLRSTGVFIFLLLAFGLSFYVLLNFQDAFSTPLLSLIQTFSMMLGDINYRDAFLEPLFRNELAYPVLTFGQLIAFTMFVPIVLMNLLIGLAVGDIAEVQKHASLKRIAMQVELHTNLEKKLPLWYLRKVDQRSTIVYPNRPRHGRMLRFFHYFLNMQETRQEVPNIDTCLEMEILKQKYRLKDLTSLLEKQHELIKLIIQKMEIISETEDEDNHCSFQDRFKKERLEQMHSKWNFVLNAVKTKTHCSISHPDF", "experiment": "IonWorks Barracuda (IWB) automated patch clamp detection of TRPA1 inhibitory activity", "assay_type": "cell-based", "conditions": "HEK293 cells stably expressing TRPA1, AITC-induced current", "description": "IonWorks Barracuda (IWB) automated patch clamp detection was used as test method: HEK293 cells stably expressing TRPA1 were placed in the T175 culture flask with DMEM medium containing 15 μg/mL Blasticidin S HCl, 200 μg/mL Hygromycin B and 10% FBS, and cultured in an incubator in 5% CO2 at 37° C. When the cell density reached about 80%, the culture medium was removed, the residue was rinsed once with phosphate buffered saline (PBS) without calcium and magnesium. 3 mL of Trypsin was added to digest for 2 min, 7 mL of culture medium was added to terminate the digestion. The cells were collected to 15 mL centrifuge tube and centrifuged at 800 rpm for 3 min. After the supernatant was removed, the cells were added to appropriate volume of extracellular fluid for re-suspending, and the cell density was controlled at 2-3×10^6/mL for IWB experiment. The formulation of extracellular fluid (in mM) was 140 NaCl, 5 KCl, 1 MgCl2, 10 HEPES, 0.5 EGTA, 10 Glucose (pH 7.4); the formulation of intracellular fluid (in mM) was 140 CsCl, 10 HEPES, 5 EGTA, 0.1 CaCl2), 1 MgCl2 (pH 7.2). 28 mg/mL of amphotericin B was freshly prepared with DMSO on the day of experiment, and then final concentration of 0.1 mg/mL of that was prepared with intracellular fluid.\nPopulation patch clamp (PPC) plate was used in IWB experiment. The entire detection process was automatically carried out by the instrument. […]\nThe record of data and the export of current amplitude measurement were carried out by IWB software (version 2.5.3, Molecular Devices Corporation. Union City, CA). No statistics was recorded for wells with sealing impedance lower than 20 MΩ. […] TRPA1 current amplitude was measured at ±100 mV. […] The dose-effect curve of compounds and IC50 were fitted and calculated by GraphPad Prism 5.02 (GraphPad Software, San Diego, CA)."}, "SD rats": {"system": "SD rats", "experiment": "SNL model in rats, mechanical hyperalgesia test", "assay_type": "in vivo", "conditions": "100 mg/kg by gavage, 1 hour after administration", "description": "Male SPF grade SD rats, weighed 150-180 g, were selected. Aseptic operation during surgery was performed. The animals were anesthetized with sodium pentobarbital (50 mg/kg, intraperitoneal injection). The surgical area of animal waist was shaved and the skin was disinfected three times with iodophor and 70% ethanol. After the skin was dried, the operation was started. Surgical knife was used to make a longitudinal incision at the back of the sacrum of the animal waist to expose the left paraspinal muscles, and distractor was used to separate muscle tissue to expose the spine. The left spinal nerves L5 and L6 were separated and ligated with a 6-0 silk thread, and the wound was sutured. […]\nThe animals were weighed to calculate the dosage. […] During the test, rapid paw withdrawal of animal was recorded as pain response. When the test fiber was removed from animal skin, the paw withdrawal of animal was also recorded as pain response. If animal moved or walked, the pain response was not recorded and the test was repeated. […]\nMechanical hyperalgesia was expressed as paw withdrawal threshold (PWT) in rat behavioral test, which was calculated with the following formula: 50% response threshold (g)=(10^(Xf+k))/10,000; • Xf=the final test fiber value used in the test; • k=table value; • =mean difference"}, "C57 mice": {"system": "C57 mice", "experiment": "hot plate pain model in mice", "assay_type": "in vivo", "conditions": "10 mg/kg intraperitoneal, hot plate 55° C.", "description": "SPF-grade C57 male mice were placed at hot plate with constant 55±0.1° C. […] If the pain reaction of mice was observed, the mice were taken out immediately to prevent mice from scalding. […] Appropriate amount of test compounds were added into required volume of physiological saline and fully suspended, and the concentration of the drug compound was prepared as 1 mg/ml. The standard volume of administration to mice was 10 ml/kg (or 0.1 ml/10 g). The administration mode was intraperitoneal administration. […] The administration volume was 10 ml/kg. […] Hot plate observation indicator is the time latency of mice on the hot plate at 55±0.1° C. Measurement and recording were conducted at 3 h before administration and 15 min, 30 min, and 60 min after administration. Maximum possible effect (MPE) % was used to evaluate analgesic effect of each compound, i.e., MPE %=[(Post drug latency-baseline latency)/(30-baseline latency)]×100. MPE % at different time points was recorded. The higher the value of MPE % was, the stronger the analgesic effect of the compound was."}, "TRPV4": {"molecular_target": "T4, TRPV4 (Homo sapiens, UniProt Q9HBA0)", "T4 construct": "expressed in transfected cells", "T4 sequence (Q9HBA0 whole entry, species assumed)": "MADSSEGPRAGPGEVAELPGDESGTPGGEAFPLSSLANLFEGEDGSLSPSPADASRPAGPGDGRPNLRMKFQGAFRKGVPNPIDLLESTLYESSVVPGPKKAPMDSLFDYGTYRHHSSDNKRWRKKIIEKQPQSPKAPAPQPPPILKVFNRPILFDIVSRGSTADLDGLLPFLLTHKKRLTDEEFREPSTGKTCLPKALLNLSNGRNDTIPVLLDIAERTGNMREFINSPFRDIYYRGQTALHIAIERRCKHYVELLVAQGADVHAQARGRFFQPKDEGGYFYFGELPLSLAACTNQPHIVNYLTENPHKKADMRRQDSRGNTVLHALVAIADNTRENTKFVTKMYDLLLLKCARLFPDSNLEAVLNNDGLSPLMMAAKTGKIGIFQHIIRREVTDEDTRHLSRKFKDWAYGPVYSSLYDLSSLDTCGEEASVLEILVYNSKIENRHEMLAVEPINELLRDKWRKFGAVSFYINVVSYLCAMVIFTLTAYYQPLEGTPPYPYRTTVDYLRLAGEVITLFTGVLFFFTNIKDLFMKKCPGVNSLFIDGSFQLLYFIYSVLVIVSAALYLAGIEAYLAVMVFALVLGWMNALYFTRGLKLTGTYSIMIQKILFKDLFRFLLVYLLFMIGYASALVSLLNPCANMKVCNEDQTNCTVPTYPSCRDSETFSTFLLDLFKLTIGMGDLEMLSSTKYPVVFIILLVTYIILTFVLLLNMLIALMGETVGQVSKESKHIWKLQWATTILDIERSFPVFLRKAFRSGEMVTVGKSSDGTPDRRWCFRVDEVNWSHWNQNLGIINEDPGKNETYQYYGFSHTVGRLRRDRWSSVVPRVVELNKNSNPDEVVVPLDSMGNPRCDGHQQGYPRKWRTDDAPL", "experiment": "Manual patch clamp detection on TRPV4 channel", "assay_type": "cell-based", "conditions": "40.00 μM, positive compound", "description": "as §1, with “TRPV4” for “TRPM8”, “the expression of TRPV4.” for “TRPM8 expression.”\nas §2, with “experiment. […]” for “experiment.”\nas §3"}, "ICR mice": {"system": "ICR mice", "experiment": "acetic acid writhing pain model in mice", "assay_type": "in vivo", "conditions": "10 mg/kg intragastric, acetic acid 1 h after administration", "description": "Male ICR mice, weighed 22-25 g, were fasted but allowed to drink water freely for 2 h before administration. All ICR mice were weighed and grouped randomly, and the number of animals in each group was greater than 10. […] […] The drug was administrated intragastrically based on the weight of mice. 1.5% acetic acid solution (0.1 ml/10 g) was injected intraperitoneally 1 hour after administration, and the frequency of visceral pain in each group of mice within 30 min was observed. When concave abdomen, stretched trunk and hind paw, and high buttocks appeared, one number point was recorded. Finally, the number of appearance of the above phenomenon was counted within 30 minutes."}},
  "data": [
    {"smiles": "Cc1cccc(COc2ccccc2C(=O)N(CCCN)Cc2cccs2)c1", "note": "[AMTB, reference compound]", "values": [
      {"measurement": "Inhibition % of TRPM8 current", "setting": "TRPM8", "value": "over 90%"}
    ]},
    {"smiles": "Oc1cc2c(cc1O)CN(C(=S)NCCc1ccc(Cl)cc1)CCC2", "note": "[Capsazepine, reference compound]", "values": [
      {"measurement": "inhibition at 10 µM", "setting": "TRPV1", "value": "> 90", "unit": "%"}
    ]},
    {"smiles": "CNCC[C@H](Oc1cccc2c1CCC2)c1ccccc1", "note": "[Compound C1]", "values": [
      {"measurement": "IC50", "setting": "TRPA1", "value": "20 to 50", "unit": "µM"}
    ]},
    {"smiles": "NCC1(CC(=O)O)CCCCC1", "note": "[Gabapentin, reference compound]", "values": [
      {"measurement": "PWT", "setting": "SD rats", "value": "6.352 ± 1.897", "unit": "g"}
    ]},
    {"smiles": "NCC[C@H](Oc1cccc2ccoc12)c1cccs1", "note": "[IC-23, (S)-3-(benzofuran-7-yloxy)-3-(thiophen-2-yl)propan-1-amine]", "values": [
      {"measurement": "analgesic activity compared with the positive controls gabapentin and duloxetine", "setting": "C57 mice", "value": "significantly stronger than that of 100 mg/kg of gabapentin"},
      {"measurement": "analgesic effect (MPE %) compared with the saline control group", "setting": "C57 mice; within 60 min", "value": "very potent analgesic effect"}
    ]},
    {"smiles": "N.N.N.N.N.N.N.N.N.N.N.N.N.N.[Cl-].[Cl-].[Cl-].[Cl-].[Cl-].[Cl-].[O-2].[O-2].[Ru+3].[Ru+3].[Ru+4]", "note": "[RR, Ruthenium Red, reference compound]", "values": [
      {"measurement": "Inhibition % of TRPV4 current", "setting": "TRPV4", "value": "over 90%"}
    ]},
    {"smiles": "CN1[C@H]2C[C@H](OC(=O)[C@H](CO)c3ccccc3)C[C@@H]1[C@@H](O)C2", "note": "[anisodamine, reference compound]", "values": [
      {"measurement": "frequency of writhing response within 30 min", "setting": "ICR mice", "value": 27, "unit": "times"}
    ]}
  ]
}
